Structures are written as SMILES.

In this experiment the target is T1, pKSI (Δ5-3-ketosteroid isomerase from Pseudomonas putida) (Pseudomonas putida, UniProt P07445, D40N).
T1 sequence (P07445 1-131 D40N): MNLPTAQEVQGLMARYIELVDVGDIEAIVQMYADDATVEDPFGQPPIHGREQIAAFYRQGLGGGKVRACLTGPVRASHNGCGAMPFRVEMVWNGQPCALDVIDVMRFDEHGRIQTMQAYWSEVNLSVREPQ
In words: fluorescence emission, linear combination of bound and free spectra. Format: binding.
Consider `Oc1ccc2cc(Br)ccc2c1` [6-bromo-2-naphthol], for which the Kd (as a rule, the constant that tells how readily two partners part at equilibrium) came out at 4 ± 1 µM.
As to `COc1ccc2cc(O)ccc2c1` [6-methoxy-2-naphthol], the Kd came out at 10 ± 5 µM.
Turning to `Oc1ccc2cc(O)ccc2c1` [2,6-dihydroxynaphthalene], the Kd came to 20 ± 6 µM.
For `N#Cc1ccc2cc(O)ccc2c1` [6-cyano-2-naphthol], the Kd was determined as 2 ± 1 µM.

Source of the values: PMC2852583 (Biochemistry, 2010).
